{"source": "ChEMBL document CHEMBL2010789", "about": "“Identification of 3-acyl-2-phenylamino-1,4-dihydroquinolin-4-one derivatives as inhibitors of the phosphatase SerB653 in Porphyromonas gingivalis, implicated in periodontitis” (Bioorg Med Chem Lett, 2012)", "note": "Active and inactive are the calls of the source. No cut-off for these calls is given here.", "data": [{"system": "not listed separately", "assay": "Inhibition of Porphyromonas gingivalis recombinant SerB653 phosphatase expressed in Escherichia coli BL21 using phosphoserine as substrate after 1 hr by malachite green colorimetric assay", "settings": "not given", "units": {"IC50": "µM"}, "values": [{"smiles": "CC(=O)c1c(Nc2cc(Cl)ccc2Cl)[nH]c2c(Cl)ccc(Cl)c2c1=O", "IC50": 16.7}, {"smiles": "CC(=O)c1c(Nc2cc(Cl)cc(Cl)c2)[nH]c2c(Cl)ccc([N+](=O)[O-])c2c1=O", "IC50": 18.8}, {"smiles": "CC(=O)c1c(Nc2ccc(Cl)cc2Cl)[nH]c2c(C(F)(F)F)cc(Cl)cc2c1=O", "IC50": 7}, {"smiles": "CC(C)C(=O)c1c(Nc2ccc(Cl)cc2Cl)[nH]c2c(Cl)ccc(Cl)c2c1=O", "IC50": 8}, {"smiles": "CC(=O)c1c(Nc2ccc(C(F)(F)F)cc2)[nH]c2c(C(F)(F)F)cc(Cl)cc2c1=O", "IC50": 7}, {"smiles": "O=C(c1c(Nc2ccc(F)cc2F)[nH]c2c(Cl)ccc([N+](=O)[O-])c2c1=O)C1CC1", "IC50": 11.3}, {"smiles": "CCC(=O)c1c(Nc2ccc(Cl)cc2F)[nH]c2c(Cl)ccc([N+](=O)[O-])c2c1=O", "IC50": 19.8}, {"smiles": "O=C(c1c(Nc2ccc(Cl)cc2F)[nH]c2c(Cl)ccc([N+](=O)[O-])c2c1=O)C1CC1", "IC50": 18.7}, {"smiles": "CC(=O)c1c(Nc2cc(F)cc(F)c2)[nH]c2c([N+](=O)[O-])cc(Cl)cc2c1=O", "IC50": 17.6}, {"smiles": "CC(C)C(=O)c1c(Nc2cc(Cl)ccc2Cl)[nH]c2c(Cl)ccc([N+](=O)[O-])c2c1=O", "IC50": 19}, {"smiles": "CC(=O)c1c(Nc2ccc([N+](=O)[O-])cc2)[nH]c2c([N+](=O)[O-])cc(Cl)cc2c1=O", "IC50": 14.5}, {"smiles": "O=C(c1c(Nc2cc(F)cc(F)c2)[nH]c2c(Cl)ccc([N+](=O)[O-])c2c1=O)C1CC1", "IC50": 2.8}, {"smiles": "O=C(c1c(Nc2cc(Cl)ccc2Cl)[nH]c2c(Cl)ccc([N+](=O)[O-])c2c1=O)C1CC1", "IC50": 18.7}]}, {"system": "Porphyromonas gingivalis", "assay": "Inhibition of Porphyromonas gingivalis recombinant SerB653 phosphatase expressed in Escherichia coli BL21 using phosphoserine as substrate at 50 uM after 1 hr by malachite green colorimetric assay", "settings": "not given", "units": {"inhibition": "%"}, "values": [{"smiles": "CC(=O)c1c(Nc2ccc(F)cc2F)[nH]c2c(Cl)ccc(F)c2c1=O", "inhibition": 9.1}, {"smiles": "CC(=O)c1c(Nc2cc(F)ccc2F)[nH]c2c(F)ccc(F)c2c1=O", "inhibition": 7.9}, {"smiles": "CC(=O)c1c(Nc2cc(Cl)cc(Cl)c2)[nH]c2c(C)ccc(Cl)c2c1=O", "inhibition": 8.6}, {"smiles": "CC(=O)c1c(Nc2cccc(F)c2C)[nH]c2c(F)ccc(F)c2c1=O", "inhibition": 0}, {"smiles": "CC(=O)c1c(Nc2ccc(C)cc2)[nH]c2c([N+](=O)[O-])cc(Cl)cc2c1=O", "inhibition": 2.2}, {"smiles": "COc1cccc(Nc2[nH]c3c(Cl)c(Cl)ccc3c(=O)c2C(C)=O)c1", "inhibition": 3.6}, {"smiles": "COc1cccc(Nc2[nH]c3c([N+](=O)[O-])cc(Cl)cc3c(=O)c2C(C)=O)c1", "inhibition": 0}, {"smiles": "CC(=O)c1c(Nc2ccc(Cl)cc2F)[nH]c2c(Cl)ccc(C)c2c1=O", "inhibition": 24.5}, {"smiles": "CC(=O)c1c(Nc2cccc(C)c2)[nH]c2c(Cl)c(Cl)ccc2c1=O", "inhibition": 1.6}, {"smiles": "CC(=O)c1c(Nc2ccc(F)cc2F)[nH]c2c(C)ccc(Cl)c2c1=O", "inhibition": 2.3}, {"smiles": "CC(=O)c1c(Nc2cc(F)cc(F)c2)[nH]c2c(F)ccc(F)c2c1=O", "inhibition": 5.9}, {"smiles": "CC(=O)c1c(Nc2ccc(C(C)(C)C)cc2)[nH]c2c([N+](=O)[O-])cc(Cl)cc2c1=O", "inhibition": 0}, {"smiles": "CC(=O)c1c(Nc2ccc(F)cc2)[nH]c2c([N+](=O)[O-])cc(Cl)cc2c1=O", "inhibition": 9.3}, {"smiles": "CC(=O)c1c(Nc2ccccc2)[nH]c2c(Cl)c(Cl)ccc2c1=O", "inhibition": 4.8}, {"smiles": "CC(=O)c1c(Nc2cc(Cl)ccc2Cl)[nH]c2c(Cl)ccc(Cl)c2c1=O", "inhibition": 86.6}, {"smiles": "CC(=O)c1c(Nc2ccccc2)[nH]c2c([N+](=O)[O-])cc(Cl)cc2c1=O", "inhibition": 3.1}, {"smiles": "CC(=O)c1c(Nc2ccc(F)c(F)c2F)[nH]c2c(Cl)ccc(C)c2c1=O", "inhibition": 32.4}, {"smiles": "CC(=O)c1c(Nc2ccc(Br)cc2)[nH]c2c(F)ccc(F)c2c1=O", "inhibition": 1.4}, {"smiles": "CC(=O)c1c(Nc2cc(Cl)cc(Cl)c2)[nH]c2c(Cl)ccc([N+](=O)[O-])c2c1=O", "inhibition": 99.3}, {"smiles": "CC(=O)c1c(Nc2ccc(Cl)cc2Cl)[nH]c2c(C(F)(F)F)cc(Cl)cc2c1=O", "inhibition": 99}, {"smiles": "CC(=O)c1c(Nc2ccc(F)cc2F)[nH]c2c(F)ccc(F)c2c1=O", "inhibition": 0}, {"smiles": "CC(C)C(=O)c1c(Nc2ccc(Cl)cc2Cl)[nH]c2c(Cl)ccc(Cl)c2c1=O", "inhibition": 97.7}, {"smiles": "COc1ccc(Nc2[nH]c3c([N+](=O)[O-])cc(Cl)cc3c(=O)c2C(C)=O)cc1", "inhibition": 6.2}, {"smiles": "CC(=O)c1c(Nc2ccc(C(F)(F)F)cc2)[nH]c2c(C(F)(F)F)cc(Cl)cc2c1=O", "inhibition": 97.7}, {"smiles": "O=C(c1c(Nc2ccc(F)cc2F)[nH]c2c(Cl)ccc([N+](=O)[O-])c2c1=O)C1CC1", "inhibition": 85.6}, {"smiles": "CCC(=O)c1c(Nc2ccc(Cl)cc2F)[nH]c2c(Cl)ccc([N+](=O)[O-])c2c1=O", "inhibition": 94.9}, {"smiles": "O=C(c1c(Nc2ccc(Cl)cc2F)[nH]c2c(Cl)ccc([N+](=O)[O-])c2c1=O)C1CC1", "inhibition": 95.5}, {"smiles": "CC(=O)c1c(Nc2cc(F)cc(F)c2)[nH]c2c([N+](=O)[O-])cc(Cl)cc2c1=O", "inhibition": 92.2}, {"smiles": "CC(C)C(=O)c1c(Nc2cc(Cl)ccc2Cl)[nH]c2c(Cl)ccc([N+](=O)[O-])c2c1=O", "inhibition": 97.3}, {"smiles": "CC(=O)c1c(Nc2ccc([N+](=O)[O-])cc2)[nH]c2c([N+](=O)[O-])cc(Cl)cc2c1=O", "inhibition": 87}, {"smiles": "O=C(c1c(Nc2cc(F)cc(F)c2)[nH]c2c(Cl)ccc([N+](=O)[O-])c2c1=O)C1CC1", "inhibition": 96.2}, {"smiles": "O=C(c1c(Nc2cc(Cl)ccc2Cl)[nH]c2c(Cl)ccc([N+](=O)[O-])c2c1=O)C1CC1", "inhibition": 98.2}]}, {"system": "Porphyromonas gingivalis", "assay": "Antibacterial activity against Porphyromonas gingivalis ATCC 33277 after 2 hrs by broth microdilution method", "format": "functional", "settings": "ATCC 33277, 2 h", "units": {"MIC": "ng/mL"}, "values": [{"smiles": "O=C(c1c(Nc2cc(F)cc(F)c2)[nH]c2c(Cl)ccc([N+](=O)[O-])c2c1=O)C1CC1", "MIC": 6}]}, {"system": "not listed separately", "assay": "Inhibition of Porphyromonas gingivalis recombinant SerB653 phosphatase expressed in Escherichia coli BL21 using phosphoserine as substrate measured every 10 secs by malachite green colorimetric assay", "settings": "not given", "units": {"Ki": "µM"}, "values": [{"smiles": "CC(=O)c1c(Nc2ccc(Cl)cc2Cl)[nH]c2c(C(F)(F)F)cc(Cl)cc2c1=O", "Ki": 2.5}, {"smiles": "CC(C)C(=O)c1c(Nc2ccc(Cl)cc2Cl)[nH]c2c(Cl)ccc(Cl)c2c1=O", "Ki": 2.9}, {"smiles": "CC(=O)c1c(Nc2ccc(C(F)(F)F)cc2)[nH]c2c(C(F)(F)F)cc(Cl)cc2c1=O", "Ki": 2.5}, {"smiles": "O=C(c1c(Nc2ccc(F)cc2F)[nH]c2c(Cl)ccc([N+](=O)[O-])c2c1=O)C1CC1", "Ki": 4}, {"smiles": "O=C(c1c(Nc2cc(F)cc(F)c2)[nH]c2c(Cl)ccc([N+](=O)[O-])c2c1=O)C1CC1", "Ki": 1}]}, {"system": "Porphyromonas gingivalis", "assay": "Competitive inhibition of Porphyromonas gingivalis recombinant SerB653 phosphatase expressed in Escherichia coli BL21 using phosphoserine as substrate by Lineweaver-Burk plot analysis", "settings": "not given", "values": [{"smiles": "O=C(c1c(Nc2cc(F)cc(F)c2)[nH]c2c(Cl)ccc([N+](=O)[O-])c2c1=O)C1CC1", "inhibition": "Active"}]}]}
